Here are results for 2 compounds from patent publication US20130018109A1, “Skin and hair treatments” (priority 2011, published 2013).

One series relates to mice. The settings on record: according to published information; cited from earlier work.
The test system of a further series is migraine headaches. Put plainly: Use of linalool shampoo by individuals suffering from migraines. The series is classed as in vivo, human. The note with it: same individual, prescription drug taken before the shampoo use. From the text: One individual who had suffered from migraines for several years and who had taken the prescription drug Prozac® with only limited benefits, started using a commercial product, Ivory Shampoo®, with approximately 1% by volume of linalool added. […] Other commercially available shampoos containing little perfume with approximately 1% by volume of linalool added were substituted for the Ivory Shampoo with linalool and the benefit persisted. Another commercially available shampoo that has been used with about 1% by volume of linalool added is Botanical Nutrients® soyflower shampoo containing: water; extracts of geranium maculatum (geranium), Echinacea angustifolia (coneflower), and lavendula angustifolia (lavender); ammonium lauryl sulfate; decyl glucoside; cocoamide MEA; PPG-5-ceteth-10-phosphatel cocoamidopropyl betaine; fragrance; polyquatemium-7; glycerin; panthenol; hydrolyzed soy protein; isostearamidopropyl morpholine lactate; vitamin E; disodium wheat germamido PEG-2 sulfosuccinate; guar hydroxypropyl ammonium chloride; PEG-150 distearate; PEG-30 castor oil; PEG-12 dimethicone; benzophenone-4; disodium EDTA; diazolidinyl urea; methylparaben; and citric acid. Another shampoo that has been used is Bath & Body Works® Bio balancing shampoo.
When this individual stopped using the commercial shampoos containing about 1% linalool, a migraine headache was experienced. […]

Turning to `C=C(C)[C@H]1CC=C(C)CC1` [Limonene], the tumors in mice entry with mice is recorded as “shown to cause tumors in mice”.

In the case of `CNCCC(Oc1ccc(C(F)(F)F)cc1)c1ccccc1` (centres unmarked) [Prozac], the “prevention of migraine headaches by prescription drug” value in the series with migraine headaches is “had not prevented migraine headaches”.
